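Compound exposure: 48 hours, 5 concentrations, 96-well plates. GI50 marks 50% less growth. The concentration for full growth arrest is given as TGI.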
What was measured:
Assay in all cases: NCI tumour cell line growth inhibition, 48 h
HL-60(TB) leukemia = tested on: HL-60(TB) leukemia
OVCAR-4 ovarian = tested on: OVCAR-4 ovarian
HS 578T breast = tested on: HS 578T breast
NCI/ADR-RES ovarian = tested on: NCI/ADR-RES ovarian
K-562 leukemia = tested on: K-562 leukemia
UO-31 renal = tested on: UO-31 renal
PC-3 prostate = tested on: PC-3 prostate
CCRF-CEM leukemia = tested on: CCRF-CEM leukemia
SNB-19 CNS = tested on: SNB-19 CNS
A498 renal = tested on: A498 renal

Compound | TGI (HL-60(TB) leukemia) [µM] | TGI (OVCAR-4 ovarian) [µM] | TGI (HS 578T breast) [µM] | TGI (NCI/ADR-RES ovarian) [µM] | TGI (K-562 leukemia) [µM] | TGI (UO-31 renal) [µM] | TGI (PC-3 prostate) [µM] | TGI (CCRF-CEM leukemia) [µM] | TGI (SNB-19 CNS) [µM] | TGI (A498 renal) [µM] | GI50 (HL-60(TB) leukemia) [µM] | GI50 (K-562 leukemia) [µM] | GI50 (CCRF-CEM leukemia) [µM]
O=C1/C(=C/c2cccc([N+](=O)[O-])c2)Cc2ccccc21 | > 100 | > 100 | > 100 | > 100 | > 100 | > 100 | > 100 | > 100 | > 100 |  |  |  | 
N#CCCN(c1ccc(C=Nc2ccc(C(=O)O)cc2)cc1)S(=O)(=O)c1ccccc1 | > 100 | > 100 |  |  | > 100 | > 100 |  | > 100 | > 100 | > 100 |  |  | 
Cc1cc(N(CCC#N)CCC#N)ccc1/C=C(\N=[N+]=[N-])C(=O)NC(=O)COc1ccccc1 | > 100 | > 100 |  |  | > 100 | > 100 |  | > 100 | > 100 | > 100 |  |  | 
CC1=C(N2CC2)C(=O)C(C)=C(N2CC2)C1=O | 1.04 | 2.02 |  | 0.0574 | 3.92 | 0.353 |  | 3.3 | 8.33 | 0.403 |  |  | 
Nc1nc(N)c2c(-c3ccccc3)ccnc2n1 | > 100 | > 100 |  |  | > 100 | > 100 | > 100 | > 100 | > 100 | > 100 |  |  | 
CCOC(=O)C(C(=O)OCC)S(C)(=O)=O | > 100 | > 100 |  |  | > 100 | > 100 |  | > 100 | > 100 | > 100 |  |  | 
CC(=O)C(C(=O)C(=O)Nc1cc(Cl)c(Cl)cc1Cl)c1csc(N)n1 (centres undefined) | > 100 | > 100 |  |  | > 100 | > 100 |  | > 100 | > 100 | > 100 |  |  | 
CCOC(=O)Cc1ccc(Nc2nc3cc(F)c(F)cc3nc2C(=O)OCC)cc1 | > 100 | > 100 | > 100 | > 100 | > 100 | 3.15 | > 100 | > 100 | > 100 |  |  |  | 
Oc1c(Cl)c(Cl)c(O)c(-c2cnc(-c3ncc(-c4c(O)c(Cl)c(Cl)c(O)c4Cl)s3)s2)c1Cl | > 100 | > 100 | 56.5 | 71.6 | > 100 | 58.7 | > 100 | > 100 | 88.1 |  |  |  | 
CCCCCCC(O)C(=O)OC1C2C(CC1(C)C)C(O)C13OC1C(O)C1(CO1)[C@@]23C (some centres undefined) | > 100 | > 100 | 79.3 | > 100 | > 100 | > 100 | > 100 | > 100 | > 100 |  |  |  | 
COc1cc(Cn2c3ccccc3c3cc(C)cc(OC)c32)cc2c1[nH]c1ccccc12 | > 25 |  |  |  | > 25 | > 25 |  | > 25 | > 25 |  | 12.3 | 9.7 | 12
c1cc2cc(Cc3ccc4[nH]ccc4c3)ccc2[nH]1 | 54.4 | 28.7 | 66.6 |  | > 100 | 34.6 | 30.1 | > 100 | 47.5 | 37.3 |  |  | 
COc1cccc(C2c3cc4c(cc3OC(NNC(N)=O)C2C)OCO4)c1OC (centres undefined) | 57.4 |  | 45.9 |  | 88 | 86 | 55 | > 100 | > 100 | 51.1 |  |  | 
NCCCC(N)(C(=O)O)C(F)F (centres undefined) | > 5000 | > 5000 |  | > 5000 | > 5000 | > 5000 |  | > 1580 | > 5000 | > 5000 |  |  | 
CCCCCC1CC(C(C)=O)CN1c1ccc(F)cc1 (centres undefined) | > 10 |  |  |  |  | > 100 |  |  | > 10 | > 100 |  |  | 
O=C(O)c1ccc(Nc2nc3ccc(C(F)(F)F)cc3nc2-c2ccccc2)cc1 | 66.3 |  | > 100 | 96.2 | > 100 | 55.1 | > 100 | > 100 | > 100 |  |  |  | 
Cc1cc2nc3c(C#N)c4c(c(Cl)n3c2cc1C)CCC4 |  | > 100 |  | 46.2 |  |  |  |  |  | > 100 |  |  | 
CC(C)(Cl)C(Cl)CC/C(CBr)=C(\Cl)CBr (centres undefined) |  | 2.9 | 4.54 | 7.9 |  | 8.86 | 8.56 | 0.325 | 29.2 | > 58.2 |  |  | 
O=C1CS(=O)c2ccccc2N1 (centres undefined) | > 100 | > 100 |  |  | > 100 | > 100 |  | > 100 | > 100 | > 100 |  |  | 
CC1=C(C(=O)NNC(=O)c2ccccc2O)CC(C(=O)NNC(=O)c2ccccc2O)=C(C)N1 |  | > 100 | > 100 | > 51.3 | > 100 | 18.8 | > 100 | > 35.5 | > 100 |  |  |  | 
Cc1nc2c(n1Cc1ccc(F)cc1)C(=O)c1ccccc1C2=O | 29.7 | > 100 |  |  | 86.9 | > 100 |  | > 100 | > 100 |  |  |  | 
CCn1c(=O)c2c3ccc(O)cc3[nH]c2c2ccc(O)cc21 |  | > 100 | > 100 | > 100 | > 100 | > 100 | > 100 | > 100 | > 100 | > 100 |  |  | 
O=C(OCC1CC(C2(O)CCCCC2)C(=O)O1)c1ccccc1 (centres undefined) |  | > 100 |  | > 100 | > 100 | > 100 | > 100 | > 100 | > 100 | > 100 |  |  | 
COC1=C(OC)C(=O)C(C/C=C/c2c(Cl)nc3sccn23)=C(C)C1=O |  | 13.9 | 54.6 | 29.6 | 68.3 | 38.8 | 31.6 | 41.1 | 27.6 | 48.2 |  |  | 
O=C(O)C1Cc2[nH]c3ccccc3c2C2CCCC12 (centres undefined) |  | > 100 |  |  | > 100 | > 100 |  | > 100 | > 100 | > 100 |  |  | 
